Measurements from US11980667B2, “Short TAT oligomers for drug delivery” (The Trustees of Columbia University in the City of New York, priority 2017, dated 2024).
Where a SMILES comes first, the peptide text is derived from it. Where no end group is shown, it is not given here. [ ]: non-standard residue; d: D form. The star is where a group is joined. Phe(4-N(CH2CH2Cl)2) = N[C@@H](Cc1ccc(N(CCCl)CCCl)cc1)C(=O)O; 5FAM = O=C1OC2(c3ccc(O)cc3Oc3cc(O)ccc32)c2ccc(C(=O)*)cc21

Tests used:
9L cells = conditions: one hour exposure, MTT and BrdU assays after 7 days
Procedure: Cytotoxicity Study. 9L cells were grown to confluence in 96-well plates. Individual wells were exposed to no treatment or increasing concentrations of melphalan, TAT monomer, melphalan-conjugated TAT monomer (obtained from a supplier) or melphalan-conjugated TAT dimer (obtained from a supplier). Cells were incubated under these conditions for one hour. Growth factors were then reintroduced and the cells were grown for a week with standard periodic care. After 7 days, MTT and BrdU assays were used to assess cell viability. All tests were done in quadruplicate and data normalized to the untreated group. […] IV injection of the […]

9L-Luc gliosarcoma cells = experiment: In vitro cytotoxicity (BrdU and bioluminescence assays); format: cell-based; conditions: 1-100 μM, 1-hour exposure, viability at 24 hours
Procedure: In vitro cytotoxicity studies and uptake analysis. […] 9L luciferase-expressing (9L-Luc) gliosarcoma cells (provided by Dr. Brian Ross University of Michigan, Ann Arbor) were incubated in a 96 well plate and grown to 95% confluence. 9L-Luc cells were cultured in Delbecco's Modified Eagle Medium (DMEM) with fetal bovine serum (10%), streptomycin ([…]) and penicillin (100 U/ml) and 1-glutamine 2 mM in an atmosphere 95/5% O2 and CO2 with 100% humidity. They were exposed to 1, 10, and 100 μM of the compound for 1-hour and assessed for viability at 24 hours. Data for all three assays was normalized to the survival of untreated cells. Assays were run in triplicate and fluorescence values were averaged for each treatment. The 3% hydrogen peroxide treated cells provided positive controls.

9L-gliosarcoma cells = experiment: Membrane fluidity with beta-cyclodextrin cholesterol depletion; format: cell-based; conditions: 4° C. and 37° C., FIG. 33C
Procedure: 9L-gliosarcoma cells were grown to confluence in T-75 in recommended culture media. Membrane fluidity was determined by using commercially available “Gene Marker” kit. Fluorescein tagged TAT was used for determining uptake of the cell penetrating peptide. To alter membrane fluidity TAT uptake was determined at different temperatures of 4° C., 15° C. 25° C., 35° C. and 37° C.
The role of cholesterol in affecting membrane fluidity was then assessed. Cholesterol content of the membrane was measured using the commercially available Fillipin-III assay. Beta-cyclodextrin was used to deplete membrane cholesterol. The effect of cyclodextrin on TAT uptake of 100 μL at 0.1 mg/mL for 10 minutes at different temperatures was then assessed. Fluorescence was assessed by flow cytometry and confocal imaging was performed as needed.

[1] = Delivery of cell-penetrating peptides to the brain of healthy rats, confocal microscopy; format: in vivo, rat; conditions: rat, in vivo
Description: Animal preparation, IA-TCH injection, and brain tumor implantation. Animal protocols were approved by the Columbia University Institutional Animal Care and Use Committee (IACUC). Studies were primarily conducted on Sprague-Dawley rats weighing 250 to 300 grams. In the case of electron multiplying charge-coupled device imaging studies, Fisher 344 rats implanted with 9L brain tumors were utilized. The surgical preparation including anesthesia, carotid and femoral cannulation, cerebral blood flow and vital sign monitoring, as well as in vivo fluorescence imaging have been previously described in detail.
IA injections of cell-penetrating peptides (CPPs) were made during TCH as 65 μL pulses totaling 1 ml in volume. TCH was produced by a bolus injection of adenosine, esmolol, and cold saline. Animals were allowed to hemodynamically recover from TCH and euthanized 10 minutes after injection. Uptake of CPPs was assessed with a fluorescence camera and with confocal fluorescence microscopy.
Cell-penetrating peptides. Two experimental cell-penetrating peptides were tested: 1. octaarginine, also called (Arg)8 or R-8 (SEQ ID NO: 13) and 2. trans-activator of transcription or TAT (Lifetien Inc.). The 14 amino acid peptide sequence for TAT is […]COOH (SEQ ID NO: 11). Both cell-penetrating peptides (CPPs) were labeled with fluorescein so that their distribution could be identified by multispectral imaging and with fluorescence microscopy of the frozen brain sections.
Fluorescence and electron multiplying charge-coupled device imaging.

9L glioma = experiment: Survival after IA-TCH delivery of melphalan or melphalan-conjugated TAT; format: in vivo, rat; conditions: for Bleeding events: IA-TCH
Procedure: Thirteen 9L glioma-implanted anesthetized rats were intubated and ventilated. The carotid artery of each rat was exposed and cannulated but the ICA was not isolated to minimize surgical trauma. The rats were subjected to delivery of melphalan with adenosine, esmolol and cold saline via IA-TCH. Six rats received 0.25 mg of melphalan, three rats received 0.5 mg melphalan and one rat received 1 mg of melphalan. Remaining rats were either treated with saline or left untreated. After the IA-TCH injection, rats were allowed to recover and sacrificed when pre-determined criteria were met.
A similar procedure was performed on seven 9L glioma-implanted rats using melphalan-conjugated TAT monomer at a dose of 1 mg (0.16 mg melphalan content). However, the ICA was isolated with an aneurysm clip. Survival of the rats was monitored and images of the brains of the rats were obtained by MRI. The same procedure was performed using 5 rats with melphalan-conjugated TAT dimer at a dose of 1 mg (0.08 mg melphalan content).

9L glioma tumor = experiment: In vivo uptake of TAT dimer versus monomer by IA-TCH (MSI and confocal imaging); set-up: species or system rat; conditions: dimer 0.25 mg, monomer 0.125 mg, five rats each
Procedure: An additional experiment was performed to assess the in vivo uptake of fluorescein-labeled TAT dimer by IA-TCH. About 14 days after 9L glioma tumor implantation, rats were anesthetized and prepared for TAT dimer delivery experiments. TAT dimer was conjugated with fluorescein such that its concentrations in post mortem samples could be determined immediately by multispectral imaging and confocal imaging. TAT dimer (0.25 mg) and monomer (0.125 mg) were tested using IA-TCH delivery both containing equal amounts of fluorescein were evaluated. […] Animals were sacrificed 15 minutes after TAT injection. Brain tissue was harvested.

## N=C(N)NCCC[C@H](NC(=O)CN)C(=O)N[C@@H](CCCCN)C(=O)N[C@@H](CCCCN)C(=O)N[C@@H](CCCNC(=N)N)C(=O)N[C@@H](CCCNC(=N)N)C(=O)N[C@@H](CCC(N)=O)C(=O)N[C@@H](CCCNC(=N)N)C(=O)N[C@@H](CCCNC(=N)N)C(=O)N[C@@H](CCCNC(=N)N)C(=O)N1CCC[C@H]1C(=O)N1CCC[C@H]1C(=O)N[C@@H](CCC(N)=O)C(=O)N[C@@H](CCC(N)=O)C(=O)O [TAT monomer]
9L cells
  Relative cytotoxicity (cell viability): cytotoxicity increases from TAT monomer to melphalan-conjugated TAT monomer to melphalan-conjugated TAT dimer to melphalan alone

## COc1cccc2c1C(=O)c1c(O)c3c(c(O)c1C2=O)C[C@@](O)(C(=O)CO)C[C@@H]3O[C@H]1C[C@H](N)[C@H](O)[C@H](C)O1 [Dox, Doxorubicin]
9L-Luc gliosarcoma cells
  Relative toxicity (cellular viability): highest toxicity

## OC[C@H]1O[C@@H]2O[C@H]3[C@H](O)[C@@H](O)[C@@H](O[C@H]4[C@H](O)[C@@H](O)[C@@H](O[C@H]5[C@H](O)[C@@H](O)[C@@H](O[C@H]6[C@H](O)[C@@H](O)[C@@H](O[C@H]7[C@H](O)[C@@H](O)[C@@H](O[C@H]8[C@H](O)[C@@H](O)[C@@H](O[C@H]1[C@H](O)[C@H]2O)O[C@@H]8CO)O[C@@H]7CO)O[C@@H]6CO)O[C@@H]5CO)O[C@@H]4CO)O[C@@H]3CO [beta-cyclodextrin]
9L-gliosarcoma cells
  Effect on membrane fluidity: increased fluidity at higher temperatures (37° C.) than at lower temperature (4° C.) in a dose-dependent manner

## octaarginine (RRRRRRRR; also: FITC label, position not given here) [FITC labeled R8, reference compound]
[1]
  Deposition by hemisphere: detectable deposition preferentially to the hemisphere ipsilateral to carotid injection
  Distribution in the brain (semi-quantitative): more discrete and predominantly within vessel walls

## N=C(N)NCCC[C@H](NC(=O)CNC(=O)[C@@H](N)Cc1ccc(N(CCCl)CCCl)cc1)C(=O)N[C@@H](CCCCN)C(=O)N[C@@H](CCCCN)C(=O)N[C@@H](CCCNC(=N)N)C(=O)N[C@@H](CCCNC(=N)N)C(=O)N[C@@H](CCC(N)=O)C(=O)N[C@@H](CCCNC(=N)N)C(=O)N[C@@H](CCCNC(=N)N)C(=O)N[C@@H](CCCNC(=N)N)C(=O)N1CCC[C@H]1C(=O)N1CCC[C@H]1C(=O)N[C@@H](CCC(N)=O)C(=O)N[C@@H](CCC(N)=O)C(=O)O [melphalan-conjugated TAT monomer]
9L glioma; 1 mg IA-TCH
  Tolerability: well tolerated
9L glioma
  Bleeding events: Only one of seven animals showed some evidence of a tail bleed
9L cells
  Relative cytotoxicity (cell viability): cytotoxicity increases from TAT monomer to melphalan-conjugated TAT monomer to melphalan-conjugated TAT dimer to melphalan alone

## N=C(N)NCCC[C@H](NC(=O)CNC(=O)[C@H](CCC(N)=O)NC(=O)[C@H](CCC(N)=O)NC(=O)[C@@H]1CCCN1C(=O)[C@@H]1CCCN1C(=O)[C@H](CCCNC(=N)N)NC(=O)[C@H](CCCNC(=N)N)NC(=O)[C@H](CCCNC(=N)N)NC(=O)[C@H](CCC(N)=O)NC(=O)[C@H](CCCNC(=N)N)NC(=O)[C@H](CCCNC(=N)N)NC(=O)[C@H](CCCCN)NC(=O)[C@H](CCCCN)NC(=O)[C@H](CCCNC(=N)N)NC(=O)CNC(=O)[C@@H](N)Cc1ccc(N(CCCl)CCCl)cc1)C(=O)N[C@@H](CCCCN)C(=O)N[C@@H](CCCCN)C(=O)N[C@@H](CCCNC(=N)N)C(=O)N[C@@H](CCCNC(=N)N)C(=O)N[C@@H](CCC(N)=O)C(=O)N[C@@H](CCCNC(=N)N)C(=O)N[C@@H](CCCNC(=N)N)C(=O)N[C@@H](CCCNC(=N)N)C(=O)N1CCC[C@H]1C(=O)N1CCC[C@H]1C(=O)N[C@@H](CCC(N)=O)C(=O)N[C@@H](CCC(N)=O)C(=O)O [melphalan-conjugated TAT dimer] (H-[Phe(4-N(CH2CH2Cl)2)]GRKKRRQRRRPPQQGRKKRRQRRRPPQQ-OH)
9L glioma
  Bleeding events: No significant bleeding events
9L cells
  Relative cytotoxicity (cell viability): cytotoxicity increases from TAT monomer to melphalan-conjugated TAT monomer to melphalan-conjugated TAT dimer to melphalan alone

## N[C@@H](Cc1ccc(N(CCCl)CCCl)cc1)C(=O)O [melphalan, Melphalan, reference compound]
9L glioma; 0.25, 0.5, 1 mg IA-TCH
  Dose group with peak survival: peak survival was found in the 0.25 mg melphalan group
9L glioma
  Bleeding events: significant bleeding
9L glioma; melphalan 0.25, 0.5 or 1 mg IA-TCH, p=0.07 versus controls
  Survival: 30 ± 8 days
9L cells
  Relative cytotoxicity (cell viability): cytotoxicity increases from TAT monomer to melphalan-conjugated TAT monomer to melphalan-conjugated TAT dimer to melphalan alone

## N=C(N)NCCC[C@H](NC(=O)CNC(=O)[C@H](CCC(N)=O)NC(=O)[C@H](CCC(N)=O)NC(=O)[C@@H]1CCCN1C(=O)[C@@H]1CCCN1C(=O)[C@H](CCCNC(=N)N)NC(=O)[C@H](CCCNC(=N)N)NC(=O)[C@H](CCCNC(=N)N)NC(=O)[C@H](CCC(N)=O)NC(=O)[C@H](CCCNC(=N)N)NC(=O)[C@H](CCCNC(=N)N)NC(=O)[C@H](CCCCN)NC(=O)[C@H](CCCCN)NC(=O)[C@H](CCCNC(=N)N)NC(=O)CNC(=O)c1ccc2c(c1)C(=O)OC21c2ccc(O)cc2Oc2cc(O)ccc21)C(=O)N[C@@H](CCCCN)C(=O)N[C@@H](CCCCN)C(=O)N[C@@H](CCCNC(=N)N)C(=O)N[C@@H](CCCNC(=N)N)C(=O)N[C@@H](CCC(N)=O)C(=O)N[C@@H](CCCNC(=N)N)C(=O)N[C@@H](CCCNC(=N)N)C(=O)N[C@@H](CCCNC(=N)N)C(=O)N1CCC[C@H]1C(=O)N1CCC[C@H]1C(=O)N[C@@H](CCC(N)=O)C(=O)N[C@@H](CCC(N)=O)C(=O)O [fluorescein-labeled TAT dimer, 5-FAM-GRKKRRQRRR PPQQGRKKRR QRRRPPQQ-COOH] (5FAM-GRKKRRQRRRPPQQGRKKRRQRRRPPQQ-OH)
9L glioma tumor
  Tumor selective delivery: able to achieve tumor selective drug delivery
